Read-outs that look alike come from different tables or passages of the source.
Experiments:
[1] = biological target: T1, His-GST-TVMV-hRIPK1(1-324) (Homo sapiens, UniProt Q13546); test: RIPK1 HTRF Binding Assay
T1 construct: The coding region of human RIPK1(1-324) flanked by NdeI site at 5′ end; made in house; host or cells: Spodoptera frugiperda (Sf9) insect cells, baculovirus
T1 sequence (Q13546 1-324): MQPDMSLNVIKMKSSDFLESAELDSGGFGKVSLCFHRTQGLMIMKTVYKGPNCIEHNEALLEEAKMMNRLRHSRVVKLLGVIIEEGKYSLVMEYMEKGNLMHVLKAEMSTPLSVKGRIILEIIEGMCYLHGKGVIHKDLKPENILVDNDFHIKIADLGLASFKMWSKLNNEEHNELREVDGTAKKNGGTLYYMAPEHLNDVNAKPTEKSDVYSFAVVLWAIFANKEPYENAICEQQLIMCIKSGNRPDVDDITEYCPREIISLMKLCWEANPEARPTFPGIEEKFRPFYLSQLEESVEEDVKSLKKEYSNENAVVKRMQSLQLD
Experimental: The plate was incubated at rt for 1 h.
Cloning and Baculovirus Expression of RIPK1 Construct
Baculovirus was generated for the construct using the Bac-to-Bac baculovirus expression system (Invitrogen) according to the manufacturer's protocol. Briefly, recombinant bacmid was isolated from transformed DH10Bac E. coli competent cells (Invitrogen) and used to transfect Spodoptera frugiperda (Sf9) insect cells (Invitrogen). Baculovirus was harvested 72 hours post transfection and a virus stock was prepared by infecting fresh Sf9 cells at a 1/1000 (v/v) ratio for 66 hours.
The production was carried out either at a 10 L scale in a 22 L cellbag (GE Healthcare Bioscience, Pittsburgh, Pa.) or at a 20 L scale in a 50 L cellbag using WAVE-Bioreactor System 20/50 (GE Healthcare Bioscience). The infected cells were harvested by centrifugation at 2000 rpm for 20 min at 4° C. in a SORVALL® RC12BP centrifuge. The cell pellets was stored at −70° C. before protein was purified.
RIPK1 containing cell paste was resuspended in 50 mM Tris pH 7.5, 150 mM NaCl, 10 mM imidazole, 5% glycerol, 5 mM MgSO4, 1 mM TCEP, 25 U/ml Benzonase, and Complete Protease Inhibitor tablets (1/50 ml, Roche Diagnostics, Indianapolis, Ind.). […] The suspension was clarified by centrifugation at 136,000×g for 40 min, at 4° C. The lysate was decanted from the pellet and passed through a 5 ml NiNTA Superflow cartridge (Qiagen, Valencia, Calif.) using an AKTA Pure (GE Healthcare). Column was eluted with 10 CV linear gradient into 50 mM Tris 7.5, 150 mM NaCl, 500 mM imidazole, 5% glycerol, 1 mM TCEP. Peak fractions were pooled and loaded directly onto 5 ml GSTrap 4B column (GE Healthcare). Column was washed with 50 mM Tris 7.0, 150 mM NaCl, 5% glycerol, 1 mM DTT and eluted in 10 CV linear gradient into 50 mM Tris 8.0, 150 mM NaCl, 20 mM reduced glutathione, 5% glycerol, 1 mM DTT. Fractions identified by SDS-PAGE as containing RIPK1 were pooled and concentrated using 30 kDa MWCO spin concentrators (Amicon Ultra-15, Millipore, Billerica, Mass.) and loaded onto a HiLoad 26/600 Superdex 200 column (GE Healthcare) equilibrated in 25 mM Tris 7.5, 150 mM NaCl, 2 mM TCEP, 5% glycerol.
Protein was aliquoted and stored at −80° C.

[2] = tested on: MLKL phosphorylation in HT29-L23 human colorectal adenocarcinoma cells; test: MLKL Phosphorylation High-Content Assay; type: cell-based; details: Homo sapiens
Experimental: MLKL Phosphorylation High-Content Assay
Following six hours incubation at 37° C. […] MLKL phosporylation was detected using anti-MLKL (phospho S358) antibody (Abcam #ab187091) (1:1000 dilution in Blocking Buffer [PBS supplemented with 0.1% BSA]) with overnight incubation at 4° C. […] Following another three cycles of washes in PBS, the microplates were sealed, and cellular images were acquired in the Cellomics ArrayScan VTI high-content imager equipped with an X1 camera. […] The image sets were analyzed using the Compartmental Analysis Bioapplication software (Cellomics). The level of MLKL phosphorylation was quantified as MEAN CircRingAvgIntenRatio. […] The data were fitted using the 4-parameter logistic equation to calculate the IC50 and Ymax values.

[3] = x marks IC50 class <20 nM, read-out: RIPK1 HTRF binding <20 nM
[4] = x marks IC50 class <20 nM, read-out: pMLKL cell activity <20 nM
[5] = x marks IC50 class >200 nM, read-out: RIPK1 HTRF binding >200 nM
[6] = x marks IC50 class >200 nM, read-out: pMLKL cell activity >200 nM
[7] = x marks IC50 class 20-200 nM, read-out: RIPK1 HTRF binding 20-200 nM
[8] = x marks IC50 class 20-200 nM, read-out: pMLKL cell activity 20-200 nM

Row | SMILES | IC50 [1, 3] | IC50 [1, 7] | IC50 [2, 8] | also measured
1 | Cc1ncc(-c2ccn3nc(N)nc3c2)cc1C(=O)NCc1cc(F)ccc1OC1CCCC1 [Example 242, 5-{2-amino-[1,2,4]triazolo[1,5-a]pyridin-7-yl}-N-{[2-(cyclopentyloxy)-5-fluorophenyl]methyl}-2-methylpyridine-3-carboxamide] | < 20 nM | – | – | IC50 [2, 4]: < 20 nM
2 | CCOc1ncc(-c2ccn3nc(N)nc3c2)cc1C(=O)NCC[C@@H](O)c1ccc(Cl)cc1 [Example 276, 5-{2-amino-[1,2,4]triazolo[1,5-a]pyridin-7-yl}-N-[(3R)-3-(4-chlorophenyl)-3-hydroxypropyl]-2-ethoxypyridine-3-carboxamide] | – | – | – | IC50 [1, 5]: > 200 nM; IC50 [2, 6]: > 200 nM
3 | [2H]C([2H])([2H])Oc1ncc(-c2ccn3nc(N)nc3c2)cc1C(=O)NCc1cc(F)cc(F)c1OC([2H])([2H])C1CC1 [Example 283, 5-(2-amino-[1,2,4]triazolo[1,5-a]pyridin-7-yl)-N-(2-(cyclopropylmethoxy-d2)-3,5-difluorobenzyl)-2-(methoxy-H3)nicotinamide] | < 20 nM | – | – | IC50 [2, 4]: < 20 nM
4 | [2H]C([2H])([2H])[C@H](NC(=O)c1cc(-c2ccn3nc(N)nc3c2)cnc1OC)c1cc(C(F)(F)F)ccc1F [Example 347, (S)-5-(2-amino-[1,2,4]triazolo[1,5-a]pyridin-7-yl)-N-(1-(2-fluoro-5-(trifluoromethyl)phenyl)ethyl-2,2,2-d3)-2-methoxynicotinamide] | – | 20 to 200 nM | 20 to 200 nM | –
5 | Cc1ncc(-c2ccn3nc(N)nc3c2)cc1C(=O)N(C)[C@H](C)c1cc(OC(F)(F)F)ccc1F [Example 318, (R)-5-(2-amino-[1,2,4]triazolo[1,5-a]pyridin-7-yl)-N-(1-(2-fluoro-5-(trifluoromethoxy)phenyl)ethyl)-N,2-dimethylnicotinamide] | – | – | 20 to 200 nM | IC50 [1, 5]: > 200 nM
6 | CCOc1ncc(-c2ccn3nc(N)nc3c2)cc1C(=O)NCc1cc(F)cc(F)c1OCC1CC1 [Example 281, 5-{2-amino-[1,2,4]triazolo[1,5-a]pyridin-7-yl}-N-{[2-(cyclopropylmethoxy)-3,5-difluorophenyl]methyl}-2-ethoxypyridine-3-carboxamide] | < 20 nM | – | 20 to 200 nM | –
7 | CNc1ncc(-c2ccn3nc(N)nc3c2)cc1C(=O)NCCC(C)c1ccccc1 (stereo not drawn) [Example 70, 5-{2-Amino-[1,2,4]triazolo[1,5-a]pyridin-7-yl}-2-(methylamino)-N-(3-phenylbutyl)pyridine-3-carboxamide] | < 20 nM | – | 20 to 200 nM | –
8 | CCc1ncc(-c2ccn3nc(N)nc3c2)cc1C(=O)N[C@H](C)c1cc(OC(F)(F)F)ccc1F [Example 320, (R)-5-(2-amino-[1,2,4]triazolo[1,5-a]pyridin-7-yl)-2-ethyl-N-(1-(2-fluoro-5-(trifluoromethoxy)phenyl)ethyl)nicotinamide] | – | 20 to 200 nM | – | IC50 [2, 4]: < 20 nM
9 | CCOc1ccccc1CNC(=O)c1cc(-c2ccn3nc(N)nc3c2)cnc1OC [Example 153, 5-{2-amino-[1,2,4]triazolo[1,5-a]pyridin-7-yl}-N-[(2-ethoxyphenyl)methyl]-2-methoxypyridine-3-carboxamide] | < 20 nM | – | 20 to 200 nM | –
10 | COc1nc(C)c(-c2ccn3nc(N)nc3c2)cc1C(=O)NCc1ccccc1OC(C)C [Example 212, 5-{2-amino-[1,2,4]triazolo[1,5-a]pyridin-7-yl}-2-methoxy-6-methyl-N-{[2-(propan-2-yloxy)phenyl]methyl}pyridine-3-carboxamide] | < 20 nM | – | – | IC50 [2, 4]: < 20 nM
11 | Cc1nc(C)c(-c2ccn3nc(N)nc3c2)cc1C(=O)NCc1cccnc1OCC1CCCC1 [Example 183] | – | 20 to 200 nM | 20 to 200 nM | –
12 | COc1nc(C)c(-c2ccn3nc(N)nc3c2)cc1C(=O)NCc1cccc(C(F)(F)F)c1 [Example 199, 5-{2-amino-[1,2,4]triazolo[1,5-a]pyridin-7-yl}-2-methoxy-6-methyl-N-{[3-(trifluoromethyl)phenyl]methyl}pyridine-3-carboxamide] | – | 20 to 200 nM | – | IC50 [2, 6]: > 200 nM
13 | CCc1ccccc1CNC(=O)c1cc(-c2ccn3nc(N)nc3c2)cnc1OC [Example 133, 5-{2-amino-[1,2,4]triazolo[1,5-a]pyridin-7-yl}-N-[(2-ethylphenyl)methyl]-2-methoxypyridine-3-carboxamide] | – | 20 to 200 nM | – | IC50 [2, 6]: > 200 nM
14 | Cc1cnc(C(=O)NCc2cc(OC(F)(F)F)ccc2F)cc1-c1ccn2nc(N)nc2c1 [Example 399, 4-(2-amino-[1,2,4]triazolo[1,5-a]pyridin-7-yl)-N-(2-fluoro-5-(trifluoromethoxy)benzyl)-5-methylpicolinamide] | – | 20 to 200 nM | 20 to 200 nM | –
15 | COc1nc(C)c(-c2ccn3nc(N)nc3c2)cc1C(=O)NCc1ccccc1OC1CCOCC1 [Example 195, 5-{2-amino-[1,2,4]triazolo[1,5-a]pyridin-7-yl}-2-methoxy-6-methyl-N-{[2-(oxan-4-yloxy)phenyl]methyl}pyridine-3-carboxamide] | < 20 nM | – | – | IC50 [2, 4]: < 20 nM
16 | CCOc1ncc(-c2ccn3nc(N)nc3c2)cc1C(=O)NCc1ccccc1SCC(F)(F)F [Example 265, 5-{2-amino-[1,2,4]triazolo[1,5-a]pyridin-7-yl}-2-ethoxy-N-({2-[(2,2,2-trifluoroethyl)sulfanyl]phenyl}methyl)pyridine-3-carboxamide] | – | 20 to 200 nM | – | IC50 [2, 6]: > 200 nM
17 | COc1ncc(-c2ccn3nc(N)nc3c2)cc1C(=O)N1CCCC(Cc2ccc(C)cc2)C1 (stereo not drawn) [Example 121, 7-(6-methoxy-5-{3-[(4-methylphenyl)methyl]piperidine-1-carbonyl}pyridin-3-yl)-[1,2,4]triazolo[1,5-a]pyridin-2-amine] | – | 20 to 200 nM | 20 to 200 nM | –
18 | Cc1ncc(-c2ccn3nc(N)nc3c2)cc1NC(=O)c1cnn(Cc2ccccc2)c1 [Example 412, N-(5-(2-amino-[1,2,4]triazolo[1,5-a]pyridin-7-yl)-2-methylpyridin-3-yl)-1-benzyl-1H-pyrazole-4-carboxamide] | < 20 nM | – | 20 to 200 nM | –
19 | Cc1ccc(-c2ccn3nc(N)nc3c2)nc1C(=O)NCC[C@H](O)c1ccc(Cl)cc1 [Example 401, (S)-6-(2-amino-[1,2,4]triazolo[1,5-a]pyridin-7-yl)-N-(3-(4-chlorophenyl)-3-hydroxypropyl)-3-methylpicolinamide] | < 20 nM | – | 20 to 200 nM | –
20 | Cc1ncc(-c2ccn3nc(N)nc3c2)cc1C(=O)NCc1ccccc1OC(F)(F)C(F)F [Example 244, 5-{2-amino-[1,2,4]triazolo[1,5-a]pyridin-7-yl}-2-methyl-N-{[2-(1,1,2,2-tetrafluoroethoxy)phenyl]methyl}pyridine-3-carboxamide] | – | 20 to 200 nM | – | IC50 [2, 6]: > 200 nM
21 | COc1ncc(-c2ccn3nc(N)nc3c2)cc1C(=O)NCc1cc(F)ccc1OC1CCCC1 [Example 142, 5-{2-amino-[1,2,4]triazolo[1,5-a]pyridin-7-yl}-N-{[2-(cyclopentyloxy)-5-fluorophenyl]methyl}-2-methoxypyridine-3-carboxamide] | < 20 nM | – | – | IC50 [2, 4]: < 20 nM
